Test results taken from patent US20210308089A1, “METHODS OF TREATING AND/OR PREVENTING VIRAL INFECTIONS AND/OR DISEASES CAUSED BY VIRUSES IN A SUBJECT IN NEED THEREOF” (priority 2020, published 2021).
Where two headings read alike, the source gives them in different places.

Test system: patients of the REDUCE-IT and earlier EPA placebo-controlled trials
Format: in vivo, human
Details: for Placebo-Adjusted % Change / ARR / NNT / Risk Ratio (95% CI): R-I
[1] = Hematocrit shift: normal to high (Day 120)
[2] = Hematocrit shift: normal to high (Day 360)
[3] = Hematocrit shift: normal to high (Day 720)
[4] = Hematocrit shift: normal to high (Day 1080)
[5] = Hematocrit shift: normal to high (Day 1440)
[6] = Hematocrit shift: normal to high (Day 1800)
[7] = Hematocrit shift: normal to low (Day 120)
[8] = Hematocrit shift: normal to low (Day 360)
[9] = Hematocrit shift: normal to low (Day 720)
[10] = Hematocrit shift: normal to low (Day 1080)
[11] = Hematocrit shift: normal to low (Day 1440)
[12] = Hematocrit shift: normal to low (Day 1800)
[13] = Hemoglobin shift: normal to high (Day 120)
[14] = Hemoglobin shift: normal to high (Day 360)
[15] = Hemoglobin shift: normal to high (Day 720)
[16] = Hemoglobin shift: normal to high (Day 1080)
[17] = Hemoglobin shift: normal to high (Day 1440)
[18] = Hemoglobin shift: normal to high (Day 1800)
[19] = Hemoglobin shift: normal to low (Day 120)
[20] = Hemoglobin shift: normal to low (Day 360)
[21] = Hemoglobin shift: normal to low (Day 720)
[22] = Hemoglobin shift: normal to low (Day 1080)
[23] = Hemoglobin shift: normal to low (Day 1440)
[24] = Hemoglobin shift: normal to low (Day 1800)

## CC/C=C\C/C=C\C/C=C\C/C=C\C/C=C\CCCC(=O)OCC [icosapent ethyl, eicosapentaenoic acid ethyl ester]
Hematocrit (Day 360)
  Placebo-Adjusted % Change: +.78%
Hematocrit (Day 720)
  Placebo-Adjusted % Change: +1.28%
Hematocrit (Day 1080)
  Placebo-Adjusted % Change: +1.59%
Hematocrit (Day 1440)
  Placebo-Adjusted % Change: +1.86%
[1]
  ARR: 0.4%
  NNT: −234
  Risk Ratio (95% CI): 1.507 (0.952 to 2.386) −2
[2]
  ARR: 0.3%
  NNT: −364
  Risk Ratio (95% CI): 1.273 (0.811 to 1.999) −2
[3]
  ARR: 0.2%
  NNT: −566
  Risk Ratio (95% CI): 1.181 (0.724 to 1.927) −1
[4]
  ARR: 0.4%
  NNT: −282
  Risk Ratio (95% CI): 1.433 (0.826 to 2.487) −2
[5]
  ARR: 0.7%
  NNT: −138
  Risk Ratio (95% CI): 2.208 (1.155 to 4.221) −3
[6]
  ARR: 0.3%
  NNT: −354
  Risk Ratio (95% CI): 1.420 (0.582 to 3.462) −2
[7]
  ARR: −0.4%
  NNT: 228
  Risk Ratio (95% CI): 0.828 (0.612 to 1.120) 1
[8]
  ARR: −0.6%
  NNT: 158
  Risk Ratio (95% CI): 0.784 (0.583 to 1.054) 2
[9]
  ARR: −1.1%
  NNT: 90
  Risk Ratio (95% CI): 0.747 (0.579 to 0.964) 2
[10]
  ARR: −2.2%
  NNT: 45
  Risk Ratio (95% CI): 0.607 (0.469 to 0.785) 2
[11]
  ARR: −2.1%
  NNT: 47
  Risk Ratio (95% CI): 0.650 (0.500 to 0.845) 2
[12]
  ARR: −0.9%
  NNT: 111
  Risk Ratio (95% CI): 0.859 (0.627 to 1.179) 1
Hemoglobin (Day 120)
  Placebo-Adjusted % Change: +.53%
Hemoglobin (Day 360)
  Placebo-Adjusted % Change: +1%
Hemoglobin (Day 720)
  Placebo-Adjusted % Change: +1.51%
Hemoglobin (Day 1080)
  Placebo-Adjusted % Change: +2.09%
Hemoglobin (Day 1440)
  Placebo-Adjusted % Change: +2.36%
[13]
  ARR: 0.3%
  NNT: −313
  Risk Ratio (95% CI): 1.668 (0.915 to 3.042) −2
[14]
  ARR: −0.1%
  NNT: 961
  Risk Ratio (95% CI): 0.908 (0.571 to 1.442) 1
[15]
  ARR: 0.2%
  NNT: −491
  Risk Ratio (95% CI): 1.144 (0.760 to 1.721) −1
[16]
  ARR: 1.0%
  NNT: −103
  Risk Ratio (95% CI): 2.241 (1.330 to 3.778) −3
[17]
  ARR: 0.7%
  NNT: −145
  Risk Ratio (95% CI): 1.829 (1.036 to 3.229) −3
[18]
  ARR: 0.4%
  NNT: −240
  Risk Ratio (95% CI): 1.383 (0.686 to 2.788) −2
[19]
  ARR: 0.0%
  NNT: −2370
  Risk Ratio (95% CI): 1.013 (0.787 to 1.303) −1
[20]
  ARR: −0.7%
  NNT: 134
  Risk Ratio (95% CI): 0.828 (0.652 to 1.051) 1
[21]
  ARR: −1.1%
  NNT: 93
  Risk Ratio (95% CI): 0.815 (0.657 to 1.011) 1
[22]
  ARR: −2.3%
  NNT: 44
  Risk Ratio (95% CI): 0.703 (0.570 to 0.868) 2
[23]
  ARR: −2.7%
  NNT: 37
  Risk Ratio (95% CI): 0.685 (0.553 to 0.849) 2
[24]
  ARR: −1.5%
  NNT: 67
  Risk Ratio (95% CI): 0.827 (0.630 to 1.085) 1
Lymphocytes: PCS High >45%
  ARR: 2.7%
  NNT: −38
  Risk Ratio (95% CI): 1.543 (1.296 to 1.838) −2
Lymphocytes: PCS Low <30%
  ARR: −6.3%
  NNT: 16
  Risk Ratio (95% CI): 0.924 (0.904 to 0.945) 1
Neutrophils (Day 120)
  Placebo-Adjusted % Change: +1.11%
Neutrophils (Day 360)
  Placebo-Adjusted % Change: −3%
Neutrophils (Day 720)
  Placebo-Adjusted % Change: −4.7%
Neutrophils (Day 1080)
  Placebo-Adjusted % Change: −4.52%
Neutrophils (Day 1440)
  Placebo-Adjusted % Change: −3.06%
Neutrophils/Leukocytes (Ratio) (Day 120)
  Placebo-Adjusted % Change: −2.06%
Neutrophils/Leukocytes (Ratio) (Day 360)
  Placebo-Adjusted % Change: −3.87%
Neutrophils/Leukocytes (Ratio) (Day 720)
  Placebo-Adjusted % Change: −4.61%
Neutrophils/Leukocytes (Ratio) (Day 1080)
  Placebo-Adjusted % Change: −4.21%
Neutrophils/Leukocytes (Ratio) (Day 1440)
  Placebo-Adjusted % Change: −4.1%
human, in vivo
  AR: ALP >2x ULN (AE table): 0.6%
  AR: ALP > ULN (AE table): 9.8%
  AR: Blood uric acid increased (AE table): 1.0%
  AR: Gout (AE table): 3.6%
  AR: Hepatomegaly (AE table): 0.4%
  AR: Hyperuricemia (AE table): 0.6%
  AR: Spleen disorders (AE table): 0.3%
  AR: Splenomegaly (AE table): 0.2%
  ARR: ALP >2x ULN (AE table): −0.3%
  ARR: ALP > ULN (AE table): −4.5%
  ARR: Blood uric acid increased (AE table): 0.1%
  ARR: Gout (AE table): 1.1%
  ARR: Hepatomegaly (AE table): −0.4%
  ARR: Hyperuricemia (AE table): 0.3%
  ARR: Spleen disorders (AE table): −0.3%
  ARR: Splenomegaly (AE table): −0.1%
  Lab Reported Events: % of subjects: (79.9) %
  Lab Reported Events: number of subjects: 3269
  NNT: ALP >2x ULN (AE table): 341
  NNT: ALP > ULN (AE table): 22
  NNT: Blood uric acid increased (AE table): −680
  NNT: Gout (AE table): −93
  NNT: Hepatomegaly (AE table): 256
  NNT: Hyperuricemia (AE table): −292
  NNT: Spleen disorders (AE table): 372
  NNT: Splenomegaly (AE table): 682
  Platelet Count: PCS High >500 × 10^3/uL: 16 (0.4%) n(%)
  Platelet Count: PCS High >500 × 10^3/uL: % of subjects: (0.4) %
  Platelet Count: PCS High >500 × 10^3/uL: number of subjects: 16
  Platelet Count: PCS Low <100 × 10^3/uL: 19 (0.5%) n(%)
  Platelet Count: PCS Low <100 × 10^3/uL: % of subjects: (0.5) %
  Platelet Count: PCS Low <100 × 10^3/uL: number of subjects: 19
  Risk Ratio (95% CI): ALP >2x ULN (AE table): 0.600 (0.335 to 1.075) 2
  Risk Ratio (95% CI): ALP > ULN (AE table): 0.624 (0.545 to 0.714) 2
  Risk Ratio (95% CI): Blood uric acid increased (AE table): 1.154 (0.753 to 1.768) −1
  Risk Ratio (95% CI): Gout (AE table): 1.347 (1.075 to 1.687) −2
  Risk Ratio (95% CI): Hepatomegaly (AE table): 0.304 (0.131 to 0.709) 4
  Risk Ratio (95% CI): Hyperuricemia (AE table): 1.737 (0.990 to 3.050) −3
  Risk Ratio (95% CI): Spleen disorders (AE table): 0.353 (0.139 to 0.894) 4
  Risk Ratio (95% CI): Splenomegaly (AE table): 0.400 (0.126 to 1.275) 3
  WBC Differential (Lymphocytes): PCS High >45%: % of subjects: (7.4) %
  WBC Differential (Lymphocytes): PCS High >45%: number of subjects: 301
  WBC Differential (Lymphocytes): PCS Low <30%: % of subjects: (75.0) %
  WBC Differential (Lymphocytes): PCS Low <30%: number of subjects: 3067
  WBC Differential (Monocytes): PCS High >6%: 3101 (78.0%) n(%)
